Test results from ChEMBL document CHEMBL1201862, “PubChem BioAssay data set” (2004).
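Tested at 5 concentrations; 48 h exposure; 96-well plates; endpoints linearly interpolated, else capped at highest concentration. The concentration for 50% growth inhibition is given as GI50.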 Calls of active or inactive are those of the source. Cut-off read from the data, not from the text of the source: active = GI50 up to about 1.1 µM and inactive = higher.

Key:
Assay in all cases: NCI anticancer screen, dose series, 48 h
SF-295 = system: SF-295
RXF 393 = system: RXF 393
OVCAR-5 = system: OVCAR-5
CCRF-CEM = system: CCRF-CEM
RPMI-8226 = system: RPMI-8226
HCT-15 = system: HCT-15
SK-MEL-28 = system: SK-MEL-28
SF-539 = system: SF-539
NCI-H460 = system: NCI-H460
ACHN = system: ACHN
HOP-62 = system: HOP-62
MDA-MB-231 = system: MDA-MB-231
SW-620 = system: SW-620
A498 = system: A498
786-0 = system: 786-0
Hs-578T = system: Hs-578T
COLO 205 = system: COLO 205
NCI-H226 = system: NCI-H226
NCI-H522 = system: NCI-H522
U-251 = system: U-251
UO-31 = system: UO-31
SK-OV-3 = system: SK-OV-3
UACC-62 = system: UACC-62
UACC-257 = system: UACC-257
NCI-H23 = system: NCI-H23
MOLT-4 = system: MOLT-4
SK-MEL-2 = system: SK-MEL-2
OVCAR-4 = system: OVCAR-4
TK-10 = system: TK-10
HOP-92 = system: HOP-92
SR = system: SR
NCI/ADR-RES = system: NCI/ADR-RES
SK-MEL-5 = system: SK-MEL-5
SF-268 = system: SF-268
T47D = system: T47D
IGROV-1 = system: IGROV-1
K562 = system: K562
HCT-116 = system: HCT-116
HCC 2998 = system: HCC 2998
OVCAR-3 = system: OVCAR-3
SNB-75 = system: SNB-75
BT-549 = system: BT-549
HT-29 = system: HT-29
PC-3 = system: PC-3
MDA-MB-435 = system: MDA-MB-435
Malme-3M = system: Malme-3M
MCF7 = system: MCF7
DU-145 = system: DU-145
OVCAR-8 = system: OVCAR-8
SN12C = system: SN12C
A549 = system: A549
CAKI-1 = system: CAKI-1
KM12 = system: KM12
MDA-N = system: MDA-N
M14 = system: M14
LOX IMVI = system: LOX IMVI
SNB-19 = system: SNB-19
EKVX = system: EKVX
HL-60 = system: HL-60

COc1ccc(C2SCC(=O)N2NC2=NC(=O)CC(=O)N2)cc1 (stereo unspecified) was tested, and the GI50 (SF-295) was > 100 µM (inactive), the GI50 (RXF 393) was > 100 µM (inactive) and the GI50 (OVCAR-5) was > 100 µM (inactive). The GI50 (CCRF-CEM) was > 100 µM (inactive), the GI50 (RPMI-8226) was > 100 µM (inactive) and the GI50 (HCT-15) was greater than 100 µM. The GI50 (SK-MEL-28) was > 100 µM (inactive), the GI50 (SF-539) was > 100 µM (inactive) and the GI50 (NCI-H460) was > 100 µM (inactive). The GI50 (ACHN) was > 100 µM (inactive), the GI50 (HOP-62) was > 100 µM (inactive) and the GI50 (MDA-MB-231) was > 100 µM (inactive). The GI50 (SW-620) was > 100 µM (inactive), the GI50 (A498) was > 100 µM (inactive) and the GI50 (786-0) was > 100 µM (inactive). The GI50 (Hs-578T) was > 100 µM (inactive), the GI50 (COLO 205) was > 100 µM (inactive) and the GI50 (NCI-H226) was > 100 µM (inactive). The GI50 (NCI-H522) was > 100 µM (inactive), the GI50 (U-251) was > 100 µM (inactive) and the GI50 (UO-31) was > 100 µM (inactive). The GI50 (SK-OV-3) was > 100 µM (inactive), the GI50 (UACC-62) was > 100 µM (inactive) and the GI50 (UACC-257) was > 100 µM (inactive). The GI50 (NCI-H23) was > 100 µM (inactive), the GI50 (MOLT-4) was > 100 µM (inactive) and the GI50 (SK-MEL-2) was > 100 µM (inactive). For the same compound, the GI50 (OVCAR-4) was > 100 µM (inactive), the GI50 (TK-10) was > 100 µM (inactive) and the GI50 (HOP-92) was > 100 µM (inactive). For the same compound, the GI50 (SR) was > 100 µM (inactive), the GI50 (NCI/ADR-RES) was > 100 µM (inactive) and the GI50 (SK-MEL-5) was > 100 µM (inactive). For the same compound, the GI50 (SF-268) was > 100 µM (inactive), the GI50 (T47D) was > 100 µM (inactive) and the GI50 (IGROV-1) was > 100 µM (inactive). For the same compound, the GI50 (K562) was > 100 µM (inactive), the GI50 (HCT-116) was > 100 µM (inactive) and the GI50 (HCC 2998) was > 100 µM (inactive). The GI50 (OVCAR-3) was > 100 µM (inactive), the GI50 (SNB-75) was > 100 µM (inactive) and the GI50 (BT-549) was > 100 µM (inactive). The GI50 (HT-29) was > 100 µM (inactive), the GI50 (PC-3) was > 100 µM (inactive) and the GI50 (MDA-MB-435) was > 100 µM (inactive). For the same compound, the GI50 (Malme-3M) was > 100 µM (inactive), the GI50 (MCF7) was > 100 µM (inactive) and the GI50 (DU-145) was > 100 µM (inactive). The GI50 (OVCAR-8) was > 100 µM (inactive), the GI50 (SN12C) was > 100 µM (inactive) and the GI50 (A549) was > 100 µM (inactive). For the same compound, the GI50 (CAKI-1) was > 100 µM (inactive), the GI50 (KM12) was > 100 µM (inactive) and the GI50 (MDA-N) was > 100 µM (inactive). The GI50 (M14) was > 100 µM (inactive).
With COc1cc2c3cc1Oc1cc(ccc1O)C[C@@H]1c4c(cc(OC)c(O)c4Oc4ccc(cc4)C[C@@H]3N(C)CC2)CC[N+]1(C)C the GI50 (SF-295) was 19.9 µM (inactive), the GI50 (RXF 393) was 13.6 µM (inactive) and the GI50 (LOX IMVI) was 17.8 µM (inactive). For the same compound, the GI50 (OVCAR-5) was > 100 µM (inactive), the GI50 (RPMI-8226) was 79.6 µM (inactive) and the GI50 (HCT-15) was 70.1 µM. For the same compound, the GI50 (SK-MEL-28) was > 100 µM (inactive), the GI50 (SF-539) was 15.1 µM (inactive) and the GI50 (NCI-H460) was 33.3 µM (inactive). The GI50 (ACHN) was > 100 µM (inactive), the GI50 (HOP-62) was 6.95 µM (inactive) and the GI50 (MDA-MB-231) was 25.1 µM (inactive). For the same compound, the GI50 (SW-620) was 27.2 µM (inactive), the GI50 (A498) was 81.7 µM (inactive) and the GI50 (786-0) was 55.3 µM (inactive). The GI50 (Hs-578T) was 13.5 µM (inactive), the GI50 (COLO 205) was 77.1 µM (inactive) and the GI50 (NCI-H226) was > 100 µM (inactive). The GI50 (NCI-H522) was 24.9 µM (inactive), the GI50 (U-251) was 28.9 µM (inactive) and the GI50 (UO-31) was > 100 µM (inactive). The GI50 (UACC-62) was > 100 µM (inactive), the GI50 (UACC-257) was 56 µM (inactive) and the GI50 (NCI-H23) was 52 µM (inactive). The GI50 (MOLT-4) was 61.8 µM (inactive), the GI50 (SK-MEL-2) was 90.2 µM (inactive) and the GI50 (OVCAR-4) was 73.8 µM (inactive). The GI50 (TK-10) was > 100 µM (inactive), the GI50 (HOP-92) was 11.6 µM (inactive) and the GI50 (SR) was 24.8 µM (inactive). The GI50 (SNB-19) was > 100 µM (inactive), the GI50 (NCI/ADR-RES) was > 100 µM (inactive) and the GI50 (SK-MEL-5) was > 100 µM (inactive). The GI50 (SF-268) was 32.4 µM (inactive), the GI50 (T47D) was 23.8 µM (inactive) and the GI50 (IGROV-1) was > 100 µM (inactive). The GI50 (K562) was 42 µM (inactive), the GI50 (HCT-116) was 48.4 µM (inactive) and the GI50 (OVCAR-3) was 25.7 µM (inactive). For the same compound, the GI50 (BT-549) was > 100 µM (inactive), the GI50 (EKVX) was > 100 µM (inactive) and the GI50 (HT-29) was 46.5 µM (inactive). The GI50 (PC-3) was 21.9 µM (inactive), the GI50 (HL-60) was > 100 µM (inactive) and the GI50 (MDA-MB-435) was 43.7 µM (inactive). The GI50 (Malme-3M) was 17.8 µM (inactive), the GI50 (MCF7) was 22.4 µM (inactive) and the GI50 (DU-145) was 42 µM (inactive). The GI50 (OVCAR-8) was 58.7 µM (inactive), the GI50 (SN12C) was > 100 µM (inactive) and the GI50 (A549) was > 100 µM (inactive). The GI50 (CAKI-1) was > 100 µM (inactive), the GI50 (KM12) was 27.1 µM (inactive) and the GI50 (MDA-N) was > 100 µM (inactive). The GI50 (M14) was 16.8 µM (inactive).
For CCOP(=O)(OCC)/C(C#N)=C/c1ccnc2ccccc12, the GI50 (SF-295) was 24.2 µM (inactive), the GI50 (RXF 393) was 23.2 µM (inactive) and the GI50 (LOX IMVI) was 31.6 µM (inactive). The GI50 (OVCAR-5) was 22.5 µM (inactive), the GI50 (RPMI-8226) was 44.7 µM (inactive) and the GI50 (HCT-15) was 21.3 µM. For the same compound, the GI50 (SK-MEL-28) was 34.6 µM (inactive), the GI50 (SF-539) was 26.5 µM (inactive) and the GI50 (NCI-H460) was 43.6 µM (inactive). The GI50 (ACHN) was 43.6 µM (inactive), the GI50 (HOP-62) was 40.8 µM (inactive) and the GI50 (MDA-MB-231) was 24.9 µM (inactive). For the same compound, the GI50 (SW-620) was 27.3 µM (inactive), the GI50 (A498) was 78.3 µM (inactive) and the GI50 (786-0) was 20.4 µM (inactive). For the same compound, the GI50 (Hs-578T) was 23.7 µM (inactive), the GI50 (COLO 205) was 18.1 µM (inactive) and the GI50 (NCI-H226) was 24.8 µM (inactive). For the same compound, the GI50 (NCI-H522) was 21.2 µM (inactive), the GI50 (U-251) was 51.8 µM (inactive) and the GI50 (UO-31) was < 0.01 µM (active). For the same compound, the GI50 (SK-OV-3) was 36.2 µM (inactive), the GI50 (UACC-62) was 26.1 µM (inactive) and the GI50 (UACC-257) was 51.3 µM (inactive). The GI50 (NCI-H23) was 24.3 µM (inactive), the GI50 (MOLT-4) was > 100 µM (inactive) and the GI50 (SK-MEL-2) was 25 µM (inactive). For the same compound, the GI50 (OVCAR-4) was 32.6 µM (inactive), the GI50 (TK-10) was 47.1 µM (inactive) and the GI50 (HOP-92) was 18.4 µM (inactive). For the same compound, the GI50 (SR) was 21.9 µM (inactive), the GI50 (SNB-19) was 21.4 µM (inactive) and the GI50 (NCI/ADR-RES) was 20.5 µM (inactive). For the same compound, the GI50 (SK-MEL-5) was 23.3 µM (inactive), the GI50 (SF-268) was 18.4 µM (inactive) and the GI50 (T47D) was 55 µM (inactive). For the same compound, the GI50 (IGROV-1) was 45 µM (inactive), the GI50 (HCT-116) was 3.27 µM (inactive) and the GI50 (HCC 2998) was > 100 µM (inactive). For the same compound, the GI50 (OVCAR-3) was 20.3 µM (inactive), the GI50 (SNB-75) was 25.9 µM (inactive) and the GI50 (BT-549) was 23.9 µM (inactive). For the same compound, the GI50 (EKVX) was 53.3 µM (inactive), the GI50 (HT-29) was 19.7 µM (inactive) and the GI50 (PC-3) was 17.6 µM (inactive). For the same compound, the GI50 (MDA-MB-435) was 16.4 µM (inactive), the GI50 (Malme-3M) was 14 µM (inactive) and the GI50 (MCF7) was 18.8 µM (inactive). For the same compound, the GI50 (DU-145) was 34.8 µM (inactive), the GI50 (OVCAR-8) was 15 µM (inactive) and the GI50 (SN12C) was 28.6 µM (inactive). The GI50 (A549) was > 100 µM (inactive), the GI50 (CAKI-1) was 24 µM (inactive) and the GI50 (KM12) was 27.2 µM (inactive). The GI50 (MDA-N) was 21.9 µM (inactive) and the GI50 (M14) was 20.1 µM (inactive).
